US8404708B2, “Dual NK1/NK3 receptor antagonists” (Hoffmann-La Roche Inc., priority 2004, dated 2013)
Read-outs that look alike come from different tables or passages of the source.

What was measured:
[1] = biological target: human NK1 receptor (Homo sapiens, UniProt P25103); assay: NK1 receptor binding, [3H]substance P displacement, CHO cell membranes
[2] = biological target: T1, Recombinant human NK3 (hNK3) receptor (Homo sapiens, UniProt P29371); assay: NK3 receptor binding, [3H]SR142801 displacement, membrane preparations
T1 construct: expressed in transfected cells
T1 sequence (P29371 1-465): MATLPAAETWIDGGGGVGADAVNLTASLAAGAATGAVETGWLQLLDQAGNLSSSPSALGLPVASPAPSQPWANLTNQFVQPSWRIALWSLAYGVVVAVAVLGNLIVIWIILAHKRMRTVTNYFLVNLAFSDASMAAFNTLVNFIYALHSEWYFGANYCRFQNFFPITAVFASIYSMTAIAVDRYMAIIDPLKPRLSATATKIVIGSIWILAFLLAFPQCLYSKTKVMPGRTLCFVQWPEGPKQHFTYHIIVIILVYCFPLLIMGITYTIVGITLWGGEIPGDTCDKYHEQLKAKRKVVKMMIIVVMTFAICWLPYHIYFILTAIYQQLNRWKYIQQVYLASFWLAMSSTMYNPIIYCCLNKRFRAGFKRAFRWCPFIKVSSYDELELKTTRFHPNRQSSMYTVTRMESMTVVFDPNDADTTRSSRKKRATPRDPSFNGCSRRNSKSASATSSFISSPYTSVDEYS
How it was run: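 Room-temperature, 90-min filtration binding assay using about 2.5 μg recombinant receptor membranes per well; separation on polyethyleneimine-treated glass-fibre (GF/C) filters and liquid scintillation read-out, with 10 μM SB222200 for nonspecific binding.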

[3] = first value of the cell NK1/NK3, read-out: pKi NK1 (converted)
[4] = second value of the cell NK1/NK3, read-out: pKi NK3 (converted)
[5] = first value of the cell pKi NK1/NK3, human NK1 receptor, [3H]substance P
[6] = second value of the cell pKi NK1/NK3, hNK3 receptor, [3H]SR142801

Sequence of human NK1 receptor (P25103 whole entry): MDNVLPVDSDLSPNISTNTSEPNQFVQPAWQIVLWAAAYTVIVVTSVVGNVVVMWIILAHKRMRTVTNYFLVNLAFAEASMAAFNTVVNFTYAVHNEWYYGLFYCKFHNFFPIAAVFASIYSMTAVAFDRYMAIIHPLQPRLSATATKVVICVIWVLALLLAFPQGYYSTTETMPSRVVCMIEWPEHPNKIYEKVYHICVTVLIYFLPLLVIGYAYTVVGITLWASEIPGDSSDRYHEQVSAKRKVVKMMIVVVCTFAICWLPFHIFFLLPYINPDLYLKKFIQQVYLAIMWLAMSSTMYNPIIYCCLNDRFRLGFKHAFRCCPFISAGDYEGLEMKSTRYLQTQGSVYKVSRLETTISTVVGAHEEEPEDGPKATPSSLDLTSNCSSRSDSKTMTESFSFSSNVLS

Structure (SMILES) | Ki [1, 3] | Ki [2, 4] | Ki [1, 5] | Ki [2, 6]
CN(C(=O)C(C)(C)c1cc(C(F)(F)F)cc(C(F)(F)F)c1)c1cnc(N[C@@H]2CCC[C@H]2O)cc1-c1ccccc1Cl [Example 152, (1R,2R)-2-(3,5-Bis-trifluoromethyl-phenyl)-N-[4-(2-chloro-phenyl)-6-(2-hydroxy-cyclopentylamino)-pyridin-3-yl]-N-methyl-isobutyramide] |  |  | 0.759 nM | 7.76 nM
CN(C(=O)C(C)(C)c1cc(C(F)(F)F)cc(C(F)(F)F)c1)c1cnc(N2C[C@H](O)C[C@H](O)C2)cc1-c1ccccc1Cl [Example 181] |  |  | 2 nM | 3.39 nM
CN(C(=O)C(C)(C)c1cc(C(F)(F)F)cc(C(F)(F)F)c1)c1cnc(N2C[C@H](O)C[C@H]2CO)cc1-c1ncccc1Cl [Example 234, (2S,4R)-2-(3,5-Bis-trifluoromethyl-phenyl)-N-[3-chloro-6′-(4-hydroxy-2-hydroxymethyl-pyrrolidin-1-yl)-[2,4′]bipyridinyl-3′-yl]-N-methyl-isobutyramide] | 2.19 nM | 11 nM |  | 
CC(=O)N[C@H]1CCN(c2cc(-c3ccc(F)cc3C)c(N(C)C(=O)C(C)(C)c3cc(C(F)(F)F)cc(C(F)(F)F)c3)cn2)C1 [Example 99, (S)-N-[6-(3-Acetylamino-pyrrolidin-1-yl)-4-(4-fluoro-2-methyl-phenyl)-pyridin-3-yl]-2-(3,5-bis-trifluoromethyl-phenyl)-N-methyl-isobutyramide] |  |  | 0.813 nM | 55 nM
CN(C)c1ccc(-c2cc(N3C[C@H](O)C[C@H]3CO)ncc2N(C)C(=O)C(C)(C)c2cc(C(F)(F)F)cc(C(F)(F)F)c2)cc1 [Example 204, (2S,4R)-2-(3,5-Bis-trifluoromethyl-phenyl)-N-[4-(4-dimethylamino-phenyl)-6-(4-hydroxy-2-hydroxymethyl-pyrrolidin-1-yl)-pyridin-3-yl]-N-methyl-isobutyramide] |  |  | 15.1 nM | 14.8 nM
Cc1cc(F)ccc1-c1cc(N2CCC[C@H]2CO)ncc1N(C)C(=O)C(C)(C)c1cc(Cl)cc(Cl)c1 [Example 22, (S)-2-(3,5-Dichloro-phenyl)-N-[4-(4-fluoro-2-methyl-phenyl)-6-(2-hydroxymethyl-pyrrolidin-1-yl)-pyridin-3-yl]-N-methyl-isobutyramide] |  |  | 5.13 nM | 1.17 nM
CN(C(=O)C(C)(C)c1cc(C(F)(F)F)cc(C(F)(F)F)c1)c1cnc(N2CCC[C@H]2CN2CCCC2)cc1-c1ccccc1Cl [Example 64, (S)-2-(3,5-Bis-trifluoromethyl-phenyl)-N-[4-(2-chloro-phenyl)-6-(−2-pyrrolidin-1-ylmethyl-pyrrolidin-1-yl)-pyridin-3-yl]-N-methyl-isobutyramide] |  |  | 1 nM | 2.88 nM
CN(C(=O)C(C)(C)c1cc(C(F)(F)F)cc(C(F)(F)F)c1)c1cnc(N2CCC(NS(C)(=O)=O)CC2)cc1-c1ccccc1Cl [Example 113, 2-(3,5-Bis-trifluoromethyl-phenyl)-N-[4′-(2-chloro-phenyl)-4-methanesulfonylamino-3,4,5,6-tetrahydro-2H-[1,2′]bipyridinyl-5′-yl]-N-methyl-isobutyramide] |  |  | 5.75 nM | 3.47 nM

Now from value to molecule:

Ki [1, 3] | Ki [2, 4] | Ki [1, 5] | Ki [2, 6] | Structure (SMILES)
2.88 nM | 1.32 nM |  |  | Cc1ccccc1-c1cc(N2C[C@@H](F)C[C@H]2CO)ncc1N(C)C(=O)C(C)(C)c1cc(C(F)(F)F)cc(C(F)(F)F)c1 [Example 297, (2S,4S)-2-(3,5-Bis-trifluoromethyl-phenyl)-N-[6-(4-fluoro-2-hydroxymethyl-pyrrolidin-1-yl)-4-o-tolyl-pyridin-3-yl]-N-methyl-isobutyramide]
2.51 nM | 1.74 nM |  |  | Cc1cc(F)ccc1-c1cc(N2CC(=O)C[C@H]2CO)ncc1N(C)C(=O)C(C)(C)c1cc(C(F)(F)F)cc(C(F)(F)F)c1 [Example 296, (S)-2-(3,5-Bis-trifluoromethyl-phenyl)-N-[4-(4-fluoro-2-methyl-phenyl)-6-(2-hydroxymethyl-4-oxo-pyrrolidin-1-yl)-pyridin-3-yl]-N-methyl-isobutyramide]
2.14 nM | 2.29 nM |  |  | Cc1ccccc1-c1cc(N2C[C@H](F)C[C@H]2CO)ncc1N(C)C(=O)C(C)(C)c1cc(C(F)(F)F)cc(C(F)(F)F)c1 [Example 301, (2S,4R)-2-(3,5-Bis-trifluoromethyl-phenyl)-N-[6-(4-fluoro-2-hydroxymethyl-pyrrolidin-1-yl)-4-o-tolyl-pyridin-3-yl]-N-methyl-isobutyramide]
2 nM | 1.02 nM |  |  | Cc1c(F)cccc1-c1cc(N2C[C@@H](O)C[C@H]2CO)ncc1N(C)C(=O)C(C)(C)c1cc(C(F)(F)F)cc(C(F)(F)F)c1 [Example 249, (2S,4S)-2-(3,5-Bis-trifluoromethyl-phenyl)-N-[4-(3-fluoro-2-methyl-phenyl)-6-(4-hydroxy-2-hydroxymethyl-pyrrolidin-1-yl)-pyridin-3-yl]-N-methyl-isobutyramide]
 |  | 1.41 nM | 21.4 nM | Cc1cc(F)ccc1-c1cc(N2CCC[C@H]2CN2CCCC2)ncc1N(C)C(=O)C(C)(C)c1cc(C(F)(F)F)cc(C(F)(F)F)c1 [Example 169, (S)-2-(3,5-Bis-trifluoromethyl-phenyl)-N-[4-(4-fluoro-2-methyl-phenyl)-6-(2-pyrrolidin-1-ylmethyl-pyrrolidin-1-yl)-pyridin-3-yl]-N-methyl-isobutyramide]
1.45 nM | 1.55 nM |  |  | CN(C(=O)C(C)(C)c1cc(C(F)(F)F)cc(C(F)(F)F)c1)c1cnc(N2CC[C@H](O)[C@H]2CO)cc1-c1ccc(F)cc1C=O [Example 273, (2R,3S)-2-(3,5-Bis-trifluoromethyl-phenyl)-N-[4-(4-fluoro-2-formyl-phenyl)-6-(3-hydroxy-2-hydroxymethyl-pyrrolidin-1-yl)-pyridin-3-yl]-N-methyl-isobutyramide]
 |  | 1.48 nM | 8.71 nM | CN(C(=O)C(C)(C)c1cc(C(F)(F)F)cc(C(F)(F)F)c1)c1cnc(N2C[C@H](O)C[C@H]2CO)cc1-c1ccccc1 [Example 201, (2S,4R)-2-(3,5-Bis-trifluoromethyl-phenyl)-N-[6-(4-hydroxy-2-hydroxymethyl-pyrrolidin-1-yl)-4-phenyl-pyridin-3-yl]-N-methyl-isobutyramide]
 |  | 11.5 nM | 6.76 nM | CN(C(=O)C(C)(C)c1cc(C(F)(F)F)cc(C(F)(F)F)c1)c1cnc(N2CCCC[C@H]2CO)cc1-c1ccccc1Cl [Example 161, (S)-2-(3,5-Bis-trifluoromethyl-phenyl)-N-[4′-(2-chloro-phenyl)-2-hydroxymethyl-3,4,5,6-tetrahydro-2H-[1,2′]bipyridinyl-5′-yl]-N-methyl-isobutyramide]
 |  | 1.15 nM | 27.5 nM | CN(C(=O)C(C)(C)c1cc(C(F)(F)F)cc(C(F)(F)F)c1)c1cnc(N[C@@H]2CCCC[C@H]2O)cc1-c1ccccc1Cl (racemic) [Example 151, (1RS,2RS)-2-(3,5-Bis-trifluoromethyl-phenyl)-N-[4-(2-chloro-phenyl)-6-(2-hydroxy-cyclohexylamino)-pyridin-3-yl]-N-methyl-isobutyramide]
1.05 nM | 2.4 nM |  |  | CSc1ccccc1-c1cc(N2C[C@H](O)C[C@H]2CO)ncc1N(C)C(=O)C(C)(C)c1cc(C(F)(F)F)cc(C(F)(F)F)c1 [Example 217, (2S,4R)-2-(3,5-Bis-trifluoromethyl-phenyl)-N-[6-(4-hydroxy-2-hydroxymethyl-pyrrolidin-1-yl)-4-(2-methylsulfanyl-phenyl)-pyridin-3-yl]-N-methyl-isobutyramide]
